The text below walks through data of US5358945A, “Pyrimidine compound and pharmaceutically acceptable salts thereof” (Mitsui Petrochemical Industries, Ltd., priority 1990, dated 1994).

The test system of data set [1] is Mouse neuro 2a cells. The data set is described as follows: Neurite outgrowth of mouse neuroblastoma neuro 2a cells (Table 7). It is filed as cell-based. The conditions noted are these: mean ± S.D. The procedure:
The biological activities in vitro of the compounds of formula (I) on cells of the nervous system were tested. The cells tested were mouse neuroblastoma cell line neuro-2a (Dainippon Pharmaceutical Co., Ltd.) which have been established as the cells of the nervous system. The above nerve cells were grown in an incubator at 37° C. in the presence of 5% carbon dioxide gas exponentially, and the cultured for a certain period of time together with the compounds of formula (I).
The effects of the compounds of this invention on neuroblastoma cells were examined by the following method.
Mouse neuro 2a cells in the logarithmic growth period in the Dulbecco's modified Eagle's medium [DMEM, containing 100 units/ml of penicillin G sodium and 100 micrograms/ml of streptomycin sulfate] containing 10% of FCS were seeded in a 48-well plate so that the number of cells was 1,000 cells/well, and cultured for one day in 0.25 ml of the culture fluid in each well in an incubator containing 5% of carbon dioxide gas in air at 37° C. The medium was replaced by a medium containing each antibiotics and FCS and the cells were further cultured for 24 hours. Then, a 4% aqueous glutaraldehyde solution in the same amount as a medium (0.25 ml) was added, and the culture was left to stand at room temperature for 2 hours to fix the cells. After washing with water, a 0.05% aqueous solution of methylene blue was added to stain the cells. Under a microscope, the number of cells containing outgrown neurites (cells having at least one neurite with a length of at least two times as large as the long diameter of the cell) was counted visually, and the proportion of these cells in the entire cells was calculated. The well was observed over 5 or more visual fields (at least 2% of the entire surface area of the well) continuous to the left and right from a mark put at the center of the well, and more than 200 cells was counted. One drug compound was used in 6 different concentrations at most, and three runs were conducted for each concentration.

The test system of data set [2] is mouse. Put plainly: Acute toxicity in mouse (Table 10). It is filed as in vivo. On the procedure: The acute toxicity of the compounds of the invention was examined by the following method.
Male ddy-strain 5-week old mice, 4-6 per group, were used as experimental animals. Each of the compounds was dissolved or suspended in saline and administered perorally (p.o.) or intraperitoneally (i.p.), and the toxicity of the compound was assessed 24 hours after the administration.

The subject of data set [3] is Mouse neuroblastoma cells NS-20Y. Put plainly: Neurite appearance in mouse neuroblastoma NS-20Y cells (Table 8).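 Also: cells grown in polyornithine-coated dishes, with timing counted from the start of culture.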 The format is cell-based.
Where [4] appears, read: i.p., 24 hours after administration.

Turning to `COC(=O)c1ccc(C(=O)N(C)c2ccnc(N3CCCCC3)n2)cc1` [Compound 192], the “Ratio of the number of cells having neurites with a length of at least two times as large as the diameter of cells to the total number of cells” value (“Ratio” for short) turned out to be 8.0 ± 1.3% in data set [1] (0.1 mM) and 13.8 ± 2.8% in data set [1] (0.3 mM). Moreover, the “Estimated LD50” value in data set [2] (in vivo, ip) was 500 to 1000 mg/kg. The “The number of cells in which neurites appeared/Total number of cells” value in data set [3] (24 hour, 0.2 mM) is on record as 5/50; in data set [3] (24 hour, 0.5 mM), 5/50; in data set [3] (48 hour, 0.2 mM) it was 7/50; in data set [3] (48 hour, 0.5 mM), 11/50.
Regarding `COC(=O)c1ccc(C(=O)N(C)c2ccnc(N3CCC(c4ccccc4)CC3)n2)cc1` [Compound 120], the entries for the “Ratio” value in data set [1] (0.03 mM) and in data set [1] (0.1 mM) were 12.6 ± 1.6% and 8.6 ± 5.5%, respectively. For the same compound, the “Estimated LD50” value in data set [2] (in vivo, ip) is listed as over 1000 mg/kg. In addition, the “The number of cells in which neurites appeared/Total number of cells” value was 3/50 in data set [3] (24 hour, 0.2 mM) and 3/50 in data set [3] (48 hour, 0.2 mM).
Take `CN(C)c1nccc(N2CCCC2=O)n1` [Compound 432]: the “Ratio” value turned out to be 4.0 ± 2.2% in data set [1] (0.03 mM), 4.2 ± 1.7% in data set [1] (0.1 mM) and 5.1 ± 1.2% in data set [1] (1 mM). Also, in data set [2] (setting [4]), the “Estimated LD50” value is over 500 mg/kg. The “The number of cells in which neurites appeared/Total number of cells” value is reported as 6/50 in data set [3] (24 hour, 0.5 mM); 7/50 in data set [3] (48 hour, 0.2 mM); 8/50 in data set [3] (48 hour, 0.5 mM).
In the case of `O=C1CCCN1c1ccnc(N2CCN(Cc3ccccc3)CC2)n1` [Compound 424], the “Ratio” value in data set [1] (0.03 mM) is 4.5 ± 2.4%; in data set [1] (0.1 mM), 5.9 ± 1.7%; in data set [1] (0.3 mM) it was 5.2 ± 2.5%. The “Estimated LD50” value in data set [2] (setting [4]) was over 500 mg/kg. In addition, the “The number of cells in which neurites appeared/Total number of cells” value is 3/50 in data set [3] (24 hour, 0.1 mM); 5/50 in data set [3] (24 hour, 0.2 mM); 2/50 in data set [3] (48 hour, 0.1 mM).
With `CCOC(=O)C1CCN(c2nccc(N3CCCC3=O)n2)CC1` [Compound 376], the “Ratio” value was determined as 3.4 ± 0.6% in data set [1] (0.01 mM), 4.4 ± 0.8% in data set [1] (0.1 mM) and 6.0 ± 0.5% in data set [1] (0.3 mM). Also, the “Estimated LD50” value in data set [2] (setting [4]) is reported as over 500 mg/kg. Moreover, the “The number of cells in which neurites appeared/Total number of cells” value in data set [3] (24 hour, 0.2 mM) is 5/50; in data set [3] (48 hour, 0.2 mM), 5/50.
Regarding `CN(C(=O)c1ccc(C#N)cc1)c1ccnc(N2CCC(c3ccccc3)CC2)n1` [Compound 128], the figures for the “Ratio” value in data set [1] (0.1 mM) and in data set [1] (0.3 mM) were 4.3 ± 1.6% and 4.8 ± 1.2%, respectively. Moreover, the “Estimated LD50” value in data set [2] (setting [4]) is over 1000 mg/kg. In addition, the “The number of cells in which neurites appeared/Total number of cells” value in data set [3] (24 hour, 0.5 mM) is given as 3/50; in data set [3] (48 hour, 0.1 mM) it was 4/50.
As to `CC(=O)c1ccc(C(=O)N(C)c2ccnc(N3CCCCC3)n2)cc1` [Compound 208], the “Ratio” value in data set [1] (0.3 mM) worked out at 7.9 ± 0.6%; in data set [1] (1 mM), 12.7 ± 3.0%. For the same compound, the “Estimated LD50” value in data set [2] (in vivo, ip) is reported as over 1000 mg/kg. In addition, the “The number of cells in which neurites appeared/Total number of cells” value in data set [3] (24 hour, 0.2 mM) is reported as 2/50; in data set [3] (24 hour, 0.5 mM), 3/50; in data set [3] (48 hour, 0.2 mM), 6/50; in data set [3] (48 hour, 0.5 mM), 5/50.
Consider `O=C1CCCN1c1ccnc(N2CCC(Cc3ccccc3)CC2)n1` [Compound 368], for which the “Ratio” value in data set [1] (0.01 mM) was determined as 3.4 ± 0.3%; in data set [1] (0.1 mM) it was 14.4 ± 1.7%. Also, the “Estimated LD50” value in data set [2] (setting [4]) is recorded as over 500 mg/kg. Further, the “The number of cells in which neurites appeared/Total number of cells” value is reported as 6/50 in data set [3] (24 hour, 0.2 mM) and 2/50 in data set [3] (48 hour, 0.2 mM).
Take `CCCCN(CCCC)c1nccc(N2CCCC2=O)n1` [Compound 440]: in data set [1] (0.1 mM), the “Ratio” value is given as 4.3 ± 0.8%. The “Estimated LD50” value in data set [2] (setting [4]) is recorded as over 500 mg/kg. The “The number of cells in which neurites appeared/Total number of cells” value in data set [3] (24 hour, 0.1 mM) is listed as 3/50; in data set [3] (24 hour, 0.5 mM), 4/50; in data set [3] (48 hour, 0.1 mM), 4/50.
In the case of `O=C1CCCN1c1ccnc(N2CCNCC2)n1` [Compound 384], the “Ratio” value is 4.1 ± 1.5% in data set [1] (0.01 mM), 5.1 ± 2.1% in data set [1] (0.1 mM), 8.3 ± 2.7% in data set [1] (0.3 mM) and 11.5 ± 1.3% in data set [1] (1 mM). Further, the “Estimated LD50” value in data set [2] (setting [4]) is given as over 500 mg/kg. Also, the “The number of cells in which neurites appeared/Total number of cells” value was 10/50 in data set [3] (24 hour, 0.2 mM); 14/50 in data set [3] (24 hour, 0.5 mM); 10/50 in data set [3] (48 hour, 0.2 mM); 17/50 in data set [3] (48 hour, 0.5 mM).
On to `CN(C(=O)c1ccc(C=O)cc1)c1ccnc(N2CCC(c3ccccc3)CC2)n1` [Compound 152], for which the “Ratio” value in data set [1] (0.01 mM) was found to be 5.2 ± 0.4%; in data set [1] (0.03 mM) it was 16.5 ± 1.8%. In addition, the “Estimated LD50” value in data set [2] (in vivo, ip) was over 1000 mg/kg. Further, the “The number of cells in which neurites appeared/Total number of cells” value in data set [3] (24 hour, 0.1 mM) is recorded as 2/50; in data set [3] (48 hour, 0.1 mM) it was 3/50.
In the case of `CN(C(=O)c1ccc(S(=O)(=O)F)cc1)c1ccnc(N2CCC(c3ccccc3)CC2)n1` [Compound 136], the “Ratio” value in data set [1] (0.03 mM) is listed as 5.2 ± 1.8%; in data set [1] (0.1 mM), 5.4 ± 1.7%; in data set [1] (0.3 mM), 10.3 ± 0.2%; in data set [1] (1 mM), 11.8 ± 1.4%. Also, in data set [2] (setting [4]), the “Estimated LD50” value is listed as over 1000 mg/kg. In addition, the “The number of cells in which neurites appeared/Total number of cells” value is reported as 4/50 in data set [3] (24 hour, 0.5 mM) and 3/50 in data set [3] (48 hour, 0.2 mM).
Turning to `CC1CCCN(c2nccc(N3CCCC3=O)n2)C1` (centres unmarked) [Compound 336], the “Ratio” value in data set [1] (0.03 mM) is 4.0 ± 1.0%; in data set [1] (0.1 mM), 5.7 ± 1.6%; in data set [1] (0.3 mM), 21.3 ± 3.0%; in data set [1] (1 mM) it was 21.2 ± 1.6%. Moreover, the “Estimated LD50” value in data set [2] (in vivo, ip) was 250 to 500 mg/kg. Besides, the “The number of cells in which neurites appeared/Total number of cells” value in data set [3] (24 hour, 0.1 mM) was 3/50; in data set [3] (48 hour, 0.1 mM), 5/50.
Turning to `CN1CCN(c2nccc(N3CCCC3=O)n2)CC1` [Compound 408], the figures for the “Ratio” value in data set [1] (0.03 mM) and in data set [1] (0.3 mM) were 4.9 ± 0.2% and 4.4 ± 0.2%, respectively. Moreover, in data set [2] (setting [4]), the “Estimated LD50” value was over 500 mg/kg. Further, the “The number of cells in which neurites appeared/Total number of cells” value in data set [3] (24 hour, 0.2 mM) is on record as 7/50; in data set [3] (24 hour, 0.5 mM), 10/50; in data set [3] (48 hour, 0.2 mM) it was 8/50; in data set [3] (48 hour, 0.5 mM), 11/50.
